Experiments:
[1] = Comparative toxicometry, DL 50 m
[2] = Comparative toxicometry, K sim coefficient; type: in vivo
[3] = cited from earlier work
[4] = Comparative toxicometry, DL 50 ks
[5] = Comparative toxicometry, Lim sub ch (30 days); type: in vivo
[6] = Hazard (toxicity) class assignment
[7] = Bioavailability / metabolism of the selenium compound
[8] = cited from earlier work; remark: listed apart in the source

Row | SMILES | DL 50 m [1] | K sim (Limetal) ([2]; Limetal) | K sim (according to Yu. S. Kogan) [2] | Maximum allowable concentrations [3] | ADI (human) ([3]; human) [mg/kg] | DL 50 ks [4] | Lim sub ch (30 days) [5] [mg/kg] | hazard class according to Zaugolnikov Table [6] | metabolism (bioavailability) [7] | MAC (human) ([3]; human) [mg/m^3] | class of hazard subject to GOST 12.1.007-76 [8]
1 | Cc1n[nH]c(C)c1[Se]c1c(C)n[nH]c1C [DMDPS (Selekor-S), Di-(3,4)-methyldipyrazolylselenide] | 4,800-6,000 mg/kg | (>6) | (5) | 8,100 μg/kg | >0.02 | 6,000-8,100 mg/kg | 400 to 800 | fourth hazard class | 85-95% |  | 
2 | O=[Se]([O-])[O-].[Na+].[Na+] [Na2SeO3, sodium selenite, reference compound] | 6 mg/kg |  | (1.6) |  | 0.0007 | 7 to 14 mg/kg |  |  |  | 0.1 | 1 (first) class of hazard
3 | O=[Se](=O)(O)O [sodium selenate] |  |  |  |  |  |  |  |  |  |  | 1 (first) class of hazard

Reference: patent publication US20100112173A1, “ADDITIVE TO LOW-ALCOHOL OR SOFT DRINKS AND METHODS OF CONDITIONING DRINKS” (priority 2007, published 2010)
